From ChEMBL document CHEMBL3576821, “A potent antimicrobial compound isolated from Clathria cervicornis” (2015)
In brackets after ≈: the same amount, converted by molar mass.

Experiments:
Assay type in all cases: functional
Klebsiella pneumoniae = test: Antimicrobial activity against Klebsiella pneumoniae ATCC 13883 assessed as bacterial growth inhibition after 24 hrs by standard broth microdilution method; conditions: ATCC 13883, 24 h
Pseudomonas aeruginosa = test: Antimicrobial activity against Pseudomonas aeruginosa ATCC 10145 assessed as bacterial growth inhibition after 24 hrs by standard broth microdilution method; conditions: ATCC 10145, 24 h
Acinetobacter baumannii = test: Antimicrobial activity against Acinetobacter baumannii ATCC 19606 assessed as bacterial growth inhibition after 24 hrs by standard broth microdilution method; conditions: ATCC 19606, 24 h

| Structure (SMILES) | MIC (Klebsiella pneumoniae) [µg/mL] | MIC (Pseudomonas aeruginosa) [µg/mL] | MIC (Acinetobacter baumannii) [µg/mL] |
| --- | --- | --- | --- |
| O=C(O)c1cn(C2CC2)c2cc(N3CCNCC3)c(F)cc2c1=O [CIPROFLOXACIN] | 1 (≈ 3.02 µM) | 1 (≈ 3.02 µM) | 2 (≈ 6.04 µM) |
| CN(C)[C@@H]1C(O)=C(C(N)=O)C(=O)[C@@]2(O)C(O)=C3C(=O)c4c(O)cccc4[C@@](C)(O)[C@H]3C[C@@H]12 [TETRACYCLINE] | 1 (≈ 2.25 µM) | 1 (≈ 2.25 µM) | 2 (≈ 4.5 µM) |
| CC[C@H]1CCCC[C@@]2(C[C@@H]3CC[C@@H]4[C@H](C(=O)OCCCCCCCCCCCCCCCC(=O)N(CCCN)C[C@@H](O)CCN)[C@]5(CCC[C@@H](C)O5)N=C(N2)N34)O1 [CRAMBESCIDIN 800] | 1 (≈ 1.25 µM) | 1 (≈ 1.25 µM) | 2 (≈ 2.49 µM) |
| C[C@H]1COc2c(N3CCN(C)CC3)c(F)cc3c(=O)c(C(=O)O)cn1c23.C[C@H]1COc2c(N3CCN(C)CC3)c(F)cc3c(=O)c(C(=O)O)cn1c23.O [LEVOFLOXACIN] |  |  | 1 |
